Reference: paper PMC8615111, “Phenolic Thiazoles with Antioxidant and Antiradical Activity. Synthesis, In Vitro Evaluation, Toxicity, Electrochemical Behavior, Quantum Studies and Antimicrobial Screening” (Antioxidants, 2021)
Like-named read-outs stand apart in the source and are kept apart here. Marks after values point to notes of the source that are not given here.

How the values were obtained:
[1] = DPPH˙ radical scavenging assay; assay type: biochemical; details: for IC50: DPPH˙ scavenging
Protocol: The 2,2-diphenyl-1-picrylhydrazyl (DPPH˙) radical scavenging assay is based on the transfer of one hydrogen from the analyzed compound to the violet radical DPPH˙. This will convert it to a yellow compound, the change in absorbance being proportional to the amount of DPPH˙ neutralized, according to Brand-Williams et al..
The preparation of the DPPH˙ reagent was previously reported by our group. […] Over the previous quantities, DMSO was added until a total volume of 50 µL was obtained in all cuvettes, and 1950 µL of DPPH˙ solution was added to all cuvettes; then, they were shaken for well over 10 min in the dark at room temperature. The absorbances of the solutions were measured at λ = 517 nm. The DPPH˙ radical scavenging activity of evaluated compounds was calculated using Equation (2):(2) DPPH scavenging (%)=control absorbance−sample absorbance/control absorbance×100

[2] = design: method as in doi:10.1016/j.molstruc.2021.131278; details: cited from earlier work
[3] = design: method as in doi:10.1016/j.molstruc.2021.131278; details: cited from earlier work; remark: listed apart in the source
[4] = design: method as in doi:10.1016/j.molstruc.2021.131278; details: cited from earlier work; remark: listed apart in the source
[5] = tested on: HaCaT cells; assay: HaCaT cells integrity, acridine orange staining; assay type: cell-based, human; details: treatment at IC50 concentration for 24 h
Protocol: The cells were left to attach to 10 mm Ø glass slides for 24 h, at a confluence of 3 × 10^4 cells/glass slide. The slides were incubated for 10 min in acridine orange 1 µM in PBS 0.01M, and then the slides were investigated with an epifluorescence microscope Optika 510LD1 with 5 MP CCD cameras at 525 nm (green filter).

[6] = Scavenging of hydrogen peroxide by cyclic voltammetry on Au SPE; details: 0.5 mM H2O2, 0.5 mM compound, 0.1 M KCl
Protocol: The antioxidant properties were evaluated in terms of their activity against some free radicals, and other compounds reported in the literature, relevant for this purpose, such as: • ferric ions (Fe^3+)—used to test the reduction of the antioxidant character of the compounds; • DPPH˙ free radical– used to test the scavenging effect of the compounds on this radical; • hydrogen peroxide (H2O2)—used to test the scavenging effect of the synthesized molecules on this compound; • 2,2,6,6-tetramethylpiperidinyl-1-oxy (TEMPO)—used to test the scavenging effect of the synthesized molecules on this compound.
The anodic oxidation of H2O2 was used to determine the antioxidant character of compounds in different samples. Gold-based SPEs purchased from Dropsens were used as working electrode for monitoring the change in the oxidation peak of hydrogen peroxide due to the addition of different amounts of the novel compounds. The oxidation signal of H2O2 obtained at the sweep of the potential in the range from −0.5 to 1.2 V on the gold electrode can be observed in Figure A6. The scavenging abilities of compounds from 1 to 8 on […] are compared in this figure. The addition of an antioxidant, by its ability to consume H2O2, determines the decrease of anodic peak characteristic for H2O2. […]

Cl.Oc1ccc(/C=N/Nc2nc(-c3ccc(O)c(O)c3)cs2)c(O)c1 [Compound 8b, (E)-2-(2,4-dihydroxybenzylidene)-1-(4-(3,4-dihydroxyphenyl)thiazol-2-yl)hydrazin-1-ium chloride]
% of DPPH˙ Scavenged ([1]; 1 µg/mL): 39.38% | % of DPPH˙ Scavenged ([1]; 1.5 µg/mL): 47.41% | % of DPPH˙ Scavenged ([1]; 2 µg/mL): 54.37% | % of DPPH˙ Scavenged ([1]; 3 µg/mL): 67.84% | % of DPPH˙ Scavenged ([1]; 5 µg/mL): 91.38% | IC50 [1]: 1.72 µg/mL

Br.NC(=O)c1cc(-c2csc(N/N=C/c3ccc(O)cc3O)n2)ccc1O [Compound 7b, (E)-1-(4-(3-carbamoyl-4-hydroxyphenyl)thiazol-2-yl)-2-(2,4-dihydroxybenzylidene) hydrazin-1-ium bromide]
% of DPPH˙ Scavenged ([1]; 1 µg/mL): 24.01% | % of DPPH˙ Scavenged ([1]; 1.5 µg/mL): 26.00% | % of DPPH˙ Scavenged ([1]; 2 µg/mL): 30.41% | % of DPPH˙ Scavenged ([1]; 3 µg/mL): 35.81% | % of DPPH˙ Scavenged ([1]; 5 µg/mL): 51.80% | IC50 [1]: 4.84 µg/mL

C/C(=N\Nc1nc(C)cs1)c1ccc(O)cc1O [Compound 5a, Dihydroxy-Phenyl-Thiazol-Hydrazinium chloride]
% of ABTS˙^+ Scavenged ([2]; 0.5 µg/mL): 32.42 * % | % of ABTS˙^+ Scavenged ([2]; 0.75 µg/mL): 37.23 * % | % of ABTS˙^+ Scavenged ([2]; 1 µg/mL): 41.36 * % | % of ABTS˙^+ Scavenged ([2]; 1.5 µg/mL): 49.77 * % | % of ABTS˙^+ Scavenged ([2]; 2.5 µg/mL): 70.60 * % | IC50 ([2]; ABTS˙^+ scavenging): 1.45 * µg/mL | % of DPPH˙ Scavenged ([3]; 1 µg/mL): 13.11 * % | % of DPPH˙ Scavenged ([3]; 1.5 µg/mL): 20.68 * % | % of DPPH˙ Scavenged ([3]; 2 µg/mL): 28.87 * % | % of DPPH˙ Scavenged ([3]; 3 µg/mL): 48.22 * % | % of DPPH˙ Scavenged ([3]; 5 µg/mL): 79.92 * % | IC50 ([3]; DPPH˙ scavenging): 3.20 * µg/mL | Chelation Capacity (%), ferrous ions ([4]; 50 µg/mL): 0.27 * % | Chelation Capacity (%), ferrous ions ([4]; 100 µg/mL): 5.06 * %

Br.C/C(=N\Nc1nc(-c2ccc(O)c(C(N)=O)c2)cs1)c1ccc(O)cc1O [Compound 7a, (E)-1-(4-(3-carbamoyl-4-hydroxyphenyl)thiazol-2-yl)-2-(1-(2,4-dihydroxyphenyl)ethylidene)hydrazin-1-ium bromide]
% of DPPH˙ Scavenged ([1]; 1 µg/mL): 20.01% | % of DPPH˙ Scavenged ([1]; 1.5 µg/mL): 22.10% | % of DPPH˙ Scavenged ([1]; 2 µg/mL): 26.75% | % of DPPH˙ Scavenged ([1]; 3 µg/mL): 32.43% | % of DPPH˙ Scavenged ([1]; 5 µg/mL): 49.27% | IC50 [1]: 5.19 µg/mL | morphological effect on HaCaT cells, acridine orange staining [5]: induced a necroptotic aspect of the cells

Br.C/C(=N\Nc1nc(-c2ccccc2)cs1)c1ccc(O)cc1O [Compound 6a, (E)-2-(1-(2,4-dihydroxyphenyl)ethylidene)-1-(4-phenylthiazol-2-yl)hydrazin-1-ium bromide]
% of DPPH˙ Scavenged ([1]; 1 µg/mL): 5.90% | % of DPPH˙ Scavenged ([1]; 1.5 µg/mL): 9.07% | % of DPPH˙ Scavenged ([1]; 2 µg/mL): 12.87% | % of DPPH˙ Scavenged ([1]; 3 µg/mL): 19.88% | % of DPPH˙ Scavenged ([1]; 5 µg/mL): 38.13% | IC50 [1]: 6.56 µg/mL

Br.Oc1ccc(/C=N/Nc2nc(-c3ccccc3)cs2)c(O)c1 [Compound 6b, (E)-2-(2,4-dihydroxybenzylidene)-1-(4-phenylthiazol-2-yl)hydrazin-1-ium bromide]
% of DPPH˙ Scavenged ([1]; 1 µg/mL): 10.60% | % of DPPH˙ Scavenged ([1]; 1.5 µg/mL): 13.62% | % of DPPH˙ Scavenged ([1]; 2 µg/mL): 17.23% | % of DPPH˙ Scavenged ([1]; 3 µg/mL): 23.89% | % of DPPH˙ Scavenged ([1]; 5 µg/mL): 41.22% | IC50 [1]: 6.23 µg/mL

C/C(=N\Nc1nc(-c2ccc(O)c(O)c2)cs1)c1ccc(O)cc1O.Cl [Compound 8a, (E)-2-(1-(2,4-dihydroxyphenyl)ethylidene)-1-(4-(3,4-dihydroxyphenyl)thiazol-2-yl)hydrazin-1-ium chloride]
% of DPPH˙ Scavenged ([1]; 1 µg/mL): 25.05% | % of DPPH˙ Scavenged ([1]; 1.5 µg/mL): 31.43% | % of DPPH˙ Scavenged ([1]; 2 µg/mL): 36.02% | % of DPPH˙ Scavenged ([1]; 3 µg/mL): 47.13% | % of DPPH˙ Scavenged ([1]; 5 µg/mL): 68.90% | IC50 [1]: 3.26 µg/mL | scavenging effect on H2O2 [6]: highest scavenging effect | morphological effect on HaCaT cells, acridine orange staining [5]: induced nuclear fragmentation

Cc1csc(N/N=C/c2ccc(O)cc2O)n1.Cl [Compound 5b, (E)-2-(2,4-dihydroxybenzylidene)-1-(4-methylthiazol-2-yl)hydrazin-1-ium chloride]
% of DPPH˙ Scavenged ([1]; 1 µg/mL): 16.46% | % of DPPH˙ Scavenged ([1]; 1.5 µg/mL): 24.42% | % of DPPH˙ Scavenged ([1]; 2 µg/mL): 34.44% | % of DPPH˙ Scavenged ([1]; 3 µg/mL): 52.10% | % of DPPH˙ Scavenged ([1]; 5 µg/mL): 87.08% | IC50 [1]: 2.90 µg/mL
